Patent publication US11253524B2 (Gilead Sciences, Inc., priority 2018, dated 2022)
Marks after values point to notes of the source that are not given here.

Legend:
[1] = Phase 1 mass-balance study, [14C]bictegravir metabolite profiling in plasma, urine and feces; settings: for % of administered dose in feces: feces pooled per individual subject, 0 to 144 hours postdose, average of 8 subjects; for % of plasma AUC0-72 h of total radioactivity: human plasma, AUC pool 0-72 h, single oral 100 mg [14C]bictegravir; for % of administered dose in urine: human urine pooled 0 to 96 hours postdose
Text: A total of eight patents were enrolled. Subjects were healthy male nonsmokers, 18 to 45 years of age, inclusive, with a body mass index (BMI) from 19 to 30 kg/m2, inclusive, normal 12-lead electrocardiogram (ECG), normal renal function, no significant medical history, and in good general health, as determined by the investigator at the screening evaluation performed no more than 28 days prior to the scheduled first dose.
Treatment involved a single, oral dose followed by a 6- to 21-day sample collection period, the exact duration of which was based on recovery of radiolabeled drug. […] Following administration, the dosing container was rinsed twice, each rinse with approximately 50 mL of cranberry juice, and administered to the subject. The entire study drug solution and cranberry juice rinse (total of approximately 140 mL) was taken within a 10 minute window. […]
Urine: Metabolite profiling and quantitation in urine was performed with samples pooled for individual subjects within the period of 0 to 96 hours postdose.
Feces: Metabolite profiling and quantitation in feces was performed with the feces samples pooled for individual subjects.
Metabolite Quantitation: LC-Radio-chromatograms of the pooled plasma, urine, and feces samples were obtained.

[2] = In vivo BIC metabolism, plasma profile after oral [14C]BIC, rat; parameters: species or system Wistar Han Rat; settings: rats, 0 to 168 hours post dose, ND = not detected
Text: Metabolic pathways included hydroxylation, oxidative defluorination, direct glucuronidation, and oxidation followed by phase II conjugation. In the monkey, BIC was metabolized through the oxidative pathways to a greater extent compared to rat and human.

[3] = target: T1, multidrug-resistance protein 2 (MRP2; ABCC2) (Homo sapiens, UniProt Q92887); assay: in vitro; assay type: biochemical
T1 construct: host or cells: membrane vesicle preparations
Protocol: (§1) Cells and experimental conditions for the transporter inhibition assays are summarized below in Table 7. […] M15, M20, and M23 were prepared according to the procedures described herein. All other materials were purchased by SOLVO Biotechnology and experiments were conducted according to SOLVO Standard Operating Procedures (SOPs) of its certified ISO 9001:2008 system. Lot and product information was recorded by SOLVO Biotechnology.
(§2) Test compounds and positive control was incubated with membrane vesicle preparations (total protein: 50 μg/well) and the model substrate in the absence or presence of ATP. Reaction mixtures were preincubated for 15 minutes at 37° C. Reactions were started by the addition of 25 μL of 12 mM MgATP or AMP assay buffer (for background controls) preincubated separately. Reactions were stopped after 5 min by the addition of 200 μL of ice-cold washing buffer and immediate filtration via glass fiber filters mounted to a 96-well plate (filter plate). The filters were washed, dried and the amount of substrate inside the filtered vesicles determined by liquid scintillation. A positive control inhibitor was tested in parallel. Control membranes lacking transporter expression were used as negative control. All assays were performed in duplicate.
(§3) Fractional transport activities were calculated from the following equation: Activity %=(A−B)/(C−D)×100 where A is translocated amount of substrate in the presence of TA and ATP, B is translocated amount of substrate in the presence of TA, C is translocated amount of substrate in the presence of solvent and ATP, and D is translocated amount of substrate in the presence of solvent. IC50 Determination in Transporter Assays
(§4) IC50 is defined as the test article concentration needed to inhibit the maximal transporter specific transport by 50%. IC50 values were calculated using non-linear fitting of % inhibition versus concentration to a sigmoidal curve with a variable Hill Coefficient using GraphPad Prism 5 (GraphPad Software Inc., San Diego, Calif.). If the % inhibition was less than 50% at the highest concentration tested, the IC50 was not determined. No inhibition observed (NIO) is reported for relative inhibition results <20% and no concentration dependent transport observed up to the highest concentration tested.

OATP1B1 = target: T2, OATP1B1 (Homo sapiens, UniProt Q9Y6L6); assay: OATP1B1 inhibition assay using 3H-E217βG as probe substrate, HEK293FT cells; assay type: cell-based; parameters: expressed in transfected cells; settings: for IC50 (μM): NIO = no interaction observed
T2 sequence (Q9Y6L6 1-691): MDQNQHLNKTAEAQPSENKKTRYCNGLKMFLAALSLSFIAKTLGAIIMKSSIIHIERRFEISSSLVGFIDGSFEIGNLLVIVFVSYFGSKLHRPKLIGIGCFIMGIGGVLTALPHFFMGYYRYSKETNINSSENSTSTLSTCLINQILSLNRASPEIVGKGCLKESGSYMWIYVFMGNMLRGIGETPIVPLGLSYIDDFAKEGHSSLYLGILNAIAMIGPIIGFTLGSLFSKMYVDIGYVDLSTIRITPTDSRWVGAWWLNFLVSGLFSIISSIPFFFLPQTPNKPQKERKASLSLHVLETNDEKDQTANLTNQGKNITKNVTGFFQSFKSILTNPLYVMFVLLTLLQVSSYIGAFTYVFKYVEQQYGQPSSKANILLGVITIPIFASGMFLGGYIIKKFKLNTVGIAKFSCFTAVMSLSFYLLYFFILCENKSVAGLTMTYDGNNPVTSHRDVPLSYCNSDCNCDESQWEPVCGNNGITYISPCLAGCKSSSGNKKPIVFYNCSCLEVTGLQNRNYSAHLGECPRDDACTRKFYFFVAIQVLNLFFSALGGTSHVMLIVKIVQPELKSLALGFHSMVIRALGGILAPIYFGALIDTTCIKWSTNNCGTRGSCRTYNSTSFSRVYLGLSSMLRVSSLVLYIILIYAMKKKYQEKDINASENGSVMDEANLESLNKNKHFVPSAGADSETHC
Protocol: HEK293FT-Mock and OATP-transfected cells (1×10^5 cells each) were seeded 24 hr prior to assay. Pre-rinsed ells were incubated for 3 minutes with 1 μM ^3H-E217βG in HK buffer in the presence of various concentrations of test compound or positive control rifampicin. After the experiment cells were rinsed with Krebs-Henseleit buffer and lysed with 0.1 M NaOH. The amount of substrate inside the cells was determined by liquid scintillation reader.
Percent inhibition was calculated according to the following equation: % inhibition=[1−{[OATP]i−[WT]ni}/{[OATP]ni−[WT]ni}]*100 where: [OATP]i represent the substrate accumulation in the presence of test compound for either OATP1B1, OATP1B3, or OATP2B1 cells; [OATP]ni represents the substrate accumulation in the absence of test compound for either OATP1B1, OATP1B3, or OATP2B1 cells, respectively; and [WT]ni represents the substrate accumulation in the absence of test compound for wild type cells or Mock cells, respectively. IC50 Determination in Transporter Assays
IC50 was determined according to the procedures described in Example 5. […] Results are reported as NIO (no interaction observed).

MRP2 (ABCC2) = target: T3, MRP2 (ABCC2) (Homo sapiens, UniProt Q92887); assay: in vitro; assay type: biochemical; settings: human
T3 construct: host or cells: membrane vesicle preparations
Protocol: as §1, §2, §3, §4

T3 sequence (Q92887 whole entry): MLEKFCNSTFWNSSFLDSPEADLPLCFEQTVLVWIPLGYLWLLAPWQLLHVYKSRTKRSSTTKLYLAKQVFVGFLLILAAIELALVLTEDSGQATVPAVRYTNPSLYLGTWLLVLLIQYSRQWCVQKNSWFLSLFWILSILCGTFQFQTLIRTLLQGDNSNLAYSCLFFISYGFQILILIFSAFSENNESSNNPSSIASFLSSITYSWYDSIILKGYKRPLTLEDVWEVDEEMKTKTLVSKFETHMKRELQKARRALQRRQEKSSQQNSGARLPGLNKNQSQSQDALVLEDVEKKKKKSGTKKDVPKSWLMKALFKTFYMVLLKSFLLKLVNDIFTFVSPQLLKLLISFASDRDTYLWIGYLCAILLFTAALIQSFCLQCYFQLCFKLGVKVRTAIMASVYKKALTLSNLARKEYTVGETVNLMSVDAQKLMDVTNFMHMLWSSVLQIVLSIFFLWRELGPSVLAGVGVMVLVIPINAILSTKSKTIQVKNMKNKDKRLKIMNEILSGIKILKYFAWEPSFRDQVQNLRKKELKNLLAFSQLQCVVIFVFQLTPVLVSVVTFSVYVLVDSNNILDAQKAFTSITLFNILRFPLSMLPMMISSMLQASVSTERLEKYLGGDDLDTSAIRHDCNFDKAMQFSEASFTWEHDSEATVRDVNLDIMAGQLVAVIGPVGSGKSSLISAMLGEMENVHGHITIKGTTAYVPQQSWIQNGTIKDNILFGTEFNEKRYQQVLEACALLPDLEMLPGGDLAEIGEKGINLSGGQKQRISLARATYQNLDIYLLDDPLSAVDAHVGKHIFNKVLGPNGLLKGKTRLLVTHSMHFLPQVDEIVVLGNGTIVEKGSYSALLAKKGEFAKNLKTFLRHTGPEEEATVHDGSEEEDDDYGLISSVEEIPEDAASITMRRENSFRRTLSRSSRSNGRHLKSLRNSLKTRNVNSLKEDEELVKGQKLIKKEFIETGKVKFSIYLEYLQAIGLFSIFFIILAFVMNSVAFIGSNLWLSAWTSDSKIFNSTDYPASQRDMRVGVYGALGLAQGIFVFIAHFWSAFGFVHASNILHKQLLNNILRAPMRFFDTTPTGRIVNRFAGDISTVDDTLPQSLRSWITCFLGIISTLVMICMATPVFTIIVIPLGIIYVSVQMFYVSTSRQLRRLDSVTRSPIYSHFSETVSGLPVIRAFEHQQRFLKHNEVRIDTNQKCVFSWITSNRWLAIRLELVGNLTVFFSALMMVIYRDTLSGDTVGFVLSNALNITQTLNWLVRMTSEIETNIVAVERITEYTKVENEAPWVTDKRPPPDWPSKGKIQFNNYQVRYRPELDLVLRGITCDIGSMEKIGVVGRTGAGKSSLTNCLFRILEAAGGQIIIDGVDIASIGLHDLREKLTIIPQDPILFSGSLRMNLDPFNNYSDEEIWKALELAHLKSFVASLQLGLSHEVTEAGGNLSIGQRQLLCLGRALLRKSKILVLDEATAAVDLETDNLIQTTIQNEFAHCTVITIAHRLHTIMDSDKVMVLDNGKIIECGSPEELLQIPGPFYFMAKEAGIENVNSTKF
T1 sequence (Q92887 whole entry): as above

O=C(NCc1c(F)cc(F)cc1F)c1cn2c(c(O)c1=O)C(=O)N1[C@H]3CC[C@H](C3)O[C@@H]1C2 [BIC, bictegravir, reference compound]
% of administered dose in feces [1]: 30.6%
% of plasma AUC0-72 h of total radioactivity [1]: 67.9%
% of plasma AUC0-72 h of total radioactivity ([1]; listed as [^14C]Bictegravir): 67.9%
% of plasma AUC0-72 h of total radioactivity ([1]; listed as [^14C]bictegravir): approximately 67.9%
% of administered dose in urine [1]: 3.6%
% of Total Radioactivity in AUC Pooled Plasma [2]: 76.5%
IC50 (μM) [3]: NIO
IC50 (μM) (OATP1B1): NIO

O=C(NCc1c(F)cc(F)cc1F)c1cn2c(c(O[C@@H]3O[C@H](C(=O)O)[C@@H](O)[C@H](O)[C@H]3O)c1=O)C(=O)N1[C@H]3CC[C@H](C3)O[C@@H]1C2 [Metabolite M15]
% of plasma AUC0-72 h of total radioactivity [1]: 8.6%
% of administered dose in urine [1]: 21.4%
inhibition at 5 min, 300 µM (MRP2 (ABCC2)): 53%
IC50 [3]: 256 µM

O=C(NCc1c(F)cc(F)c(OS(=O)(=O)O)c1F)c1cn2c(c(O)c1=O)C(=O)N1C(C2)O[C@@H]2CC[C@H]1C2 (stereo partly drawn) [Metabolite M20]
% of plasma AUC0-72 h of total radioactivity [1]: 20.1%
% of Total Radioactivity in AUC Pooled Plasma [2]: 11.3%
inhibition at 5 min, 300 µM (MRP2 (ABCC2)): 98%
IC50 [3]: 45 µM
IC50 (μM) (OATP1B1): NIO*
Maximum inhibition at highest test conc. (% of control) (OATP1B1; at 100 μM): no dose dependent inhibition
inhibition at 3 min, 100 µM (OATP1B1; human, HEK293FT cells transfected with OATP1B1, probe 3H-E217βG (1 μM), at 100 μM, read-out: Maximum inhibition at highest test conc. (% of control)): 12%

O=C(NCc1c(F)cc(F)c(O)c1F)c1cn2c(c(O)c1=O)C(=O)N1[C@H]3CC[C@H](C3)O[C@@H]1C2 [Metabolite M23]
% of administered dose in feces [1]: 3.6%
% of plasma AUC0-72 h of total radioactivity [1]: 0.2^c %
% of Total Radioactivity in AUC Pooled Plasma [2]: 2.36%
inhibition at 5 min, 100 µM (MRP2 (ABCC2)): 43%
IC50 [3]: > 100 µM
